Reference: article PMC7764601 (Molecules, 2020)
Like-named read-outs stand apart in the source and are kept apart here. Marks after values point to notes of the source that are not given here.

Experiments:
[1] = tested on: mice; settings: compounds obtained previously (series 1 and 2); cited from earlier work
[2] = tested on: mice; set-up: method as in PMID 11234340, PMID 12484538, PMID 15652370; settings: series 1, cited from earlier work
[3] = tested on: mice; set-up: method as in PMID 11234340, PMID 12484538, PMID 15652370; settings: series 1, cited from earlier work; remark: listed apart in the source
[4] = tested on: mice; experiment: “Writhing” test in mice (phenylbenzoquinone); format: in vivo; settings: for ED50: Mus musculus, ip, read-out: ED50 (mg/kg) ± SEM, writhing test
Procedure: (§1) The experiments were carried out on male albino Swiss mice (body weight 18–26 g). All of the animals were housed at constant humidity (60%) and temperature (25 °C) and kept on a 12 h light/dark cycle. Animals were fed a standard pellet diet with free access to tap water. All procedures were conducted according to Animal Care and Use Committee guidelines, and approved by the Ethical Committee of Jagiellonian University, Kraków.
(§2) Control and experimental groups consisted of 6–8 animals each. The investigated compounds were administered intraperitoneally as a suspension in 0.5% methylcellulose in a constant volume of 10 mL/kg.
(§3) The statistical significance was calculated using a Student’s t-test. The ED50 values and their confidence limits were calculated according to the method of Litchfield and Wilcoxon.
(§4) Pain reactivity was measured in two tests: “hot plate” test (according to the method of Eddy and Leimbach) and “writhing” test in mice (according to Hendershot and Forsaith).
Then, after 25 min, the irritant (phenylbenzoquinone, 0.02% solution, ethanol-water, 5:95) was also administered intraperitoneally in a constant volume of 0.25 mL. Five min after the application of the irritant,a 10 min long period of observation started, in which the number of writhing episodes was counted.
The analgesic effect of individual doses was expressed in percent:(1) % Analgesic effect=100−∑ of writing incidents in experimental group/∑ of writhing incidents in control group×100

[5] = in vivo; format: in vivo; settings: male, albino Swiss, mouse, in vivo, ip; mice, intraperitoneal, mortality after 24 h; confidence limits in parentheses
Procedure: as §1, §2

[6] = tested on: mice; experiment: Spontaneous locomotor activity in mice (photoresistor actometers); format: in vivo; settings: for ED50: confidence limits in parentheses, read-out: ED50 (mg/kg) ± SEM, spontaneous locomotor activity; for Number of impulses ± SEM (30min): i.p.
Procedure: as §1, §2
Spontaneous locomotor activity in mice was measured in circular photoresistoractometers (32 cm in diameter). […] Thirty minutes after the injection of the investigated compounds, mice were placed in the actometers for 30 min. Each crossing of the light beam was recorded automatically. The amount of impulses was noted after 30 min.

[7] = tested on: mice; experiment: “Hot plate” test in mice; format: in vivo; settings: for change in vivo at 100 mg/kg / change in vivo at 200 mg/kg / Time of Reaction to Pain Stimulus (s) ± SEM: hot plate; for change in vivo at 100 mg/kg / change in vivo at 200 mg/kg / Time of Reaction to Pain Stimulus (s) ± SEM / analgesic effect in the hot plate test (in words): mice; for analgesic effect in the hot plate test (in words): applied doses (Table 4)
Procedure: as §1, §2, §3, §4
Animals were placed individually on the metal plate, heated to 55 ± 1 °C. The latency time (s) to the pain reaction (licking of the hind paws or jumping) was recorded by a stop-watch. A cutoff time of 45 s was used to prevent tissue damage.

[8] = Mus musculus, ip, dose 25 mg/kg, read-out: Degree of motor inhibition (%)
[9] = Mus musculus, ip, dose 50 mg/kg, read-out: Degree of motor inhibition (%)
[10] = Mus musculus, ip, 0.5 h, dose 100 mg/kg, read-out: Prolonged Time (%)
[11] = Mus musculus, ip, 0.5 h, dose 200 mg/kg, read-out: Prolonged Time (%)
[12] = confidence limits in parentheses
[13] = Mus musculus, ip, dose 100 mg/kg, read-out: Degree of motor inhibition (%)
[14] = Mus musculus, ip, dose 200 mg/kg, read-out: Degree of motor inhibition (%)
[15] = Mus musculus, ip, 0.5 h, read-out: Prolonged Time (%)

| Compound | Mean no. of writhing ± SEM ([4]; i.p., dose 12.5 mg/kg) | Mean no. of writhing ± SEM ([4]; i.p., dose 25 mg/kg) | LD50 at 24 h [5] [mg/kg] | ED50 ([6]; Mus musculus, ip) [mg/kg] | inhibition at 25 mg/kg [6, 8] [%] | inhibition at 50 mg/kg [6, 9] [%] | Number of impulses ± SEM (30min) ([6]; dose 25 mg/kg) | Number of impulses ± SEM (30min) ([6]; dose 50 mg/kg) | change in vivo at 100 mg/kg [7, 10] [%] | change in vivo at 200 mg/kg [7, 11] [%] | Time of Reaction to Pain Stimulus (s) ± SEM ([7]; dose 100 mg/kg) [s] | Time of Reaction to Pain Stimulus (s) ± SEM ([7]; dose 200 mg/kg) [s] | ED50 [4, 12] [mg/kg] | Mean no. of writhing ± SEM ([4]; i.p., dose 50 mg/kg) | Mean no. of writhing ± SEM ([4]; i.p., dose 100 mg/kg) | inhibition at 100 mg/kg [6, 13] [%] | Number of impulses ± SEM (30min) ([6]; dose 100 mg/kg) | also measured |
| --- | --- | --- | --- | --- | --- | --- | --- | --- | --- | --- | --- | --- | --- | --- | --- | --- | --- | --- |
| COc1nc(C)cc2c1C(=O)N(CN1CCOCC1)C2=O [Compound 1Q] | – | – | – | – | – | – | – | – | – | – | – | – | – | – | – | – | – | ED50, writhing test [1]: 13.66 mg/kg; Thiopental Anesthesia % Prolong. ([2]; dose 44 mg/kg): 141.7 ** %; % Inh. of locomotor activity ([3]; dose 44 mg/kg): 42.65 * % |
| COc1ccccc1N1CCN(CCCCN2C(=O)c3cc(C)nc(OC)c3C2=O)CC1 [Compound 1R] | – | – | – | – | – | – | – | – | – | – | – | – | – | – | – | – | – | ED50, writhing test [1]: 6.8 mg/kg; Thiopental Anesthesia % Prolong. ([2]; dose 50 mg/kg): 159.12%; Thiopental Anesthesia % Prolong. ([2]; dose 100 mg/kg): 255.97%; % Inh. of locomotor activity ([3]; dose 100 mg/kg): 82.32 ** % |
| COc1nc(C)cc2c1C(=O)N(CCCCN1CCOCC1)C2=O [Compound 8, 4-methoxy-6-methyl-4-(N-morpholino)-butyl-1H-pyrrolo[3,4-c]pyridine-1,3-(2H)-dion] | 19.8 ± 2.1 | 6.2 ± 0.9 | > 2000 | 34.2 | 35.4 | 61.6 | 299 ± 59 | 178 ± 30 | 3.87 | 27.5 | 10.2 ± 1.8 | 12.2 ± 1.4 | – | – | – | – | – | inhibition at 5 mg/kg ([6]; Mus musculus, ip, dose 5 mg/kg, read-out: Degree of motor inhibition (%)): 18.1%; inhibition at 12.5 mg/kg ([6]; Mus musculus, ip, dose 12.5 mg/kg, read-out: Degree of motor inhibition (%)): 32.8%; Number of impulses ± SEM (30min) ([6]; dose 5 mg/kg): 387 ± 24; Number of impulses ± SEM (30min) ([6]; dose 12.5 mg/kg): 312 ±26; analgesic effect in the hot plate test (in words) [7]: not statistically significant |
| CCOc1nc(C)cc2c1C(=O)N(CCN1CCN(c3ccccc3)CC1)C2=O [Compound 10] | – | 7.9 ± 2.1 | > 2000 | 84 ± 5.1 | 49.2 | 55.1 | 224 ± 45 | 198 ± 54 | 6.98 | 34.9 | 18.4 ± 1.7 | 23.2 ± 2.6 | 15.8 ± 0.91 | 2.1 ± 0.6 | 0.9 ± 0.1 | 6.8 | 142 ± 29 | analgesic effect in the hot plate test (in words) [7]: not statistically significant |
| CCOc1nc(C)cc2c1C(=O)N(CCN1CCN(c3ccccc3OC)CC1)C2=O [Compound 12] | 13.9 ± 2.3 | 9.7 ± 1.1 | > 2000 | 85 ± 4.2 | 11.8 | 34.5 | 389 ± 54 | 289 ± 72 | 28.5 | 52.3 | 22.1 ± 2.7 | 26.2 ± 3.1 | 14.9 ± 2.01 | 2.4 ± 0.3 | 1.9 ± 0.4 | 59.2 | 180 ± 41 | inhibition at 200 mg/kg [6, 14]: 76.2%; Number of impulses ± SEM (30min) ([6]; dose 200 mg/kg): 105 ± 48 |
| COc1nc(C)cc2c1C(=O)N(CN1CCN(c3cccc(Cl)c3)CC1)C2=O [Compound 13] | 14.1 ± 1.0 | 5.9 ± 0.8 | > 2000 | 164 ± 28.7 | – | 7.93 | – | 406 ± 34 | 4.07 | 11.6 | 17.9 ± 2.4 | 19.2 ± 1.8 | 14.8 | 3.8 ± 1.9 | 0.8 ± 0.1 | 32.2 | 299 ± 49 | inhibition at 200 mg/kg [6, 14]: 59.6%; Number of impulses ± SEM (30min) ([6]; dose 200 mg/kg): 178 ± 32 |
| CN1CC[C@]23c4c5ccc(O)c4O[C@H]2[C@@H](O)C=C[C@H]3[C@H]1C5 [Morphine, reference compound] | – | – | – | – | – | – | – | – | – | – | – | – | – | – | – | – | – | ED50 (mg/kg) ± SEM, writhing test ([4]; i.p., confidence limits in parentheses): 2.44 mg/kg; Mean no. of writhing ± SEM ([4]; i.p., dose 1 mg/kg): 16.2 ± 3.51; Mean no. of writhing ± SEM ([4]; i.p., dose 3 mg/kg): 7.5 ± 2.9; Mean no. of writhing ± SEM ([4]; i.p., dose 10 mg/kg): 1.2 ± 0.8; change in vivo at 1 mg/kg [7, 15]: 33.8%; change in vivo at 3 mg/kg [7, 15]: 104%; change in vivo at 6 mg/kg [7, 15]: 111%; ED50 ([7]; Mus musculus, read-out: ED50, hot plate test): 2.55 mg/kg; Time of Reaction to Pain Stimulus (s) ± SEM ([7]; dose 1 mg/kg): 19.4 ± 2.1 s; Time of Reaction to Pain Stimulus (s) ± SEM ([7]; dose 3 mg/kg): 29.6 ± 6 s; Time of Reaction to Pain Stimulus (s) ± SEM ([7]; dose 6 mg/kg): 30.6 ± 3.9 s |
